Results from patent publication US4812473A, “1,5-Disubstituted imidazoles as inhibitors of juvenile hormone” (Earth Chemical Co., Ltd., priority 1986, dated 1989).

Legend:
[1] = tested on: 4th-instar household silkworm larvae; assay: Anti-JH Activity Test II: anti-JH activity value (ED50); assay type: in vivo, Bombyx mori; conditions: 4th-instar larvae, dropwise application
Procedure: (§1) The compound (test preparation) of the present invention diluted with acetone to the predetermined concentration was applied dropwise, in an amount of 1 to 4 μper larva, to the abdomen and the back of third- or fourth-instar larvae (those living for 0 to 8 hours after ecdysis) of household silkworms (Bombyx mori) raised in a room and fed on mulberry leaves. Immediately after treatment, the larvae were placed into a plastics case and reared by being fed on mulberry leaves until they started spinning cocoons. The anti-JH activity was evaluated in terms of the percentage (%) of presence of larvae (premature larvae) which began to spin cocoons at the 4th-instar stage without undergoing the 5th-instar moult. The test larvae treated with each test preparation in each group numbered 20. The test larvae in the control group treated with acetone in lieu of the test compound all commenced cocooning after the 5th-instar moult.
After the test compound diluted to the predetermined concentration was applied dropwise to 4th-instar household silkworm larvae in the same manner as in Anti-JH Activity Test I as described above, the larvae thus treated were reared until they started cocooning. The number of larvae which began to cocoon at the 4th-instar stage without undergoing the 5th-instar moult were counted to determine the percentage (%) of presence of larvae (premature larvae). Then the concentration of test preparation which induced 50% presence was determined and indicated as an anti-JH activity value (ED50).

[2] = tested on: household silkworms (Bombyx mori) larvae; assay: Anti-JH Activity Test I: activity to induce premature metamorphosis; assay type: in vivo
Procedure: as §1

anti-JH activity = assay: Inhibition of the anti-JH activity of the compound of Example 1 by methoprene, a JH-active substance; conditions: in vivo
Procedure: Investigation was conducted to determine whether the activity of the foregoing compound of the invention can be inhibited by methoprene which is a JH-active substance. […] [Anti-JH Activity Test II]

SMILES	ED50 (anti-JH activity value, 50% presence of premature larvae) [1] [μg/larva]	other results
CC(C)CCCC(C)Cc1cncn1Cc1ccccc1 (stereo not drawn) [Example 1, 1-benzyl-5-(2,6-dimethylheptyl)imidazole]	1.4	Activity to induce premature metamorphosis ([2]; 3rd-instar larvae, dosage 0.5 μg/larva): 10%; Activity to induce premature metamorphosis ([2]; 3rd-instar larvae, dosage 1 μg/larva): 70%; Activity to induce premature metamorphosis ([2]; 3rd-instar larvae, dosage 2 μg/larva): 100%; Activity to induce premature metamorphosis ([2]; 4th-instar larvae, dosage 1 μg/larva): 20%; Activity to induce premature metamorphosis ([2]; 4th-instar larvae, dosage 2 μg/larva): 100%; Activity to induce premature metamorphosis ([2]; 4th-instar larvae, dosage 10 μg/larva): 100%; anti-JH activity (in words) ([2]; conclusion from Table 1): had an anti-JH activity
CC(C)=CCC/C(C)=C/c1cncn1C(C)C [Example 8, 1-isopropyl-5-[(E)-2,6-dimethyl-1,5-heptadienyl]imidazole]	6.4	–
CC(C)=CCC/C(C)=C/c1cncn1C [Example 2, 1-methyl-5-[(E)-2,6-dimethyl-1,5heptadienyl]-imidazole]	17.5	–
CC(C)=CCC/C(C)=C/c1cncn1C1CCCC1 [Example 12, 1-cyclopentyl-5-[(E)-2,6-dimethyl-1,5-heptadienyl]imidazole]	3.6	–
CCCCCn1cncc1/C=C(\C)CCC=C(C)C [Example 6, 1-amyl-5-[(E)-2,6-dimethyl-1,5-heptadienyl]imidazole]	2.4	–
CC(C)=CCC/C(C)=C/c1cncn1CC(C)C [Example 9, 1-isobutyl-5-[(E)-2,6-dimethyl-1,5-heptadienyl]imidazole]	1.8	–
CC(C)=CCC/C(C)=C/c1cncn1C1CCCCC1 [Example 13, 1-cyclohexyl-5-[(E)-2,6-dimethyl-1,5-heptadienyl]imidazole]	6.6	–
CCCCn1cncc1/C=C(\C)CCC=C(C)C [Example 5, 1-butyl-5-[(E)-2,6-dimethyl-1,5-heptadienyl]imidazole]	3.1	–
CCC(C)n1cncc1/C=C(\C)CCC=C(C)C (stereo not drawn) [Example 10, 1-sec-butyl-5-[(E)-2,6-dimethyl-1,5-heptadienyl]imidazole]	1.9	–
CCCn1cncc1/C=C(\C)CCC=C(C)C [Example 4, 1-propyl-5-[(E)-2,6-dimethyl-1,5-heptadienyl]imidazole]	3.5	–
CCCCCCn1cncc1/C=C(\C)CCC=C(C)C [Example 7, 1-hexyl-5-[(E)-2,6-dimethyl-1,5-heptadienyl]imidazole]	4.2	–
CCn1cncc1/C=C(\C)CCC=C(C)C [Example 3, 1-ethyl-5-[(E)-2,6-dimethyl-1,5-heptadienyl]imidazole]	5.8	–
COC(C)(C)CCC[C@H](C)C/C=C/C(C)=C/C(=O)OC(C)C (racemic) [methoprene]	–	inhibition by methoprene of the activity of the compound of the invention (Example 1) (anti-JH activity): completely inhibited
CC(C)=CCC/C(C)=C/c1cncn1CCC(C)C [Example 11, 1-isoamyl-5-[(E)-2,6-dimethyl-1,5-heptadienyl]imidazole]	3.5	–
